According to BindingDB's records for doi:10.1016/s0028-3908(97)00049-x (Roche Bioscience, 1997):

Legend:
[1] = target: Kappa-type opioid receptor (Cavia porcellus, UniProt P41144)
[2] = target: T1, Muscarinic acetylcholine receptor M1 (Rattus norvegicus, UniProt P08482)
T1 sequence (P08482 whole entry): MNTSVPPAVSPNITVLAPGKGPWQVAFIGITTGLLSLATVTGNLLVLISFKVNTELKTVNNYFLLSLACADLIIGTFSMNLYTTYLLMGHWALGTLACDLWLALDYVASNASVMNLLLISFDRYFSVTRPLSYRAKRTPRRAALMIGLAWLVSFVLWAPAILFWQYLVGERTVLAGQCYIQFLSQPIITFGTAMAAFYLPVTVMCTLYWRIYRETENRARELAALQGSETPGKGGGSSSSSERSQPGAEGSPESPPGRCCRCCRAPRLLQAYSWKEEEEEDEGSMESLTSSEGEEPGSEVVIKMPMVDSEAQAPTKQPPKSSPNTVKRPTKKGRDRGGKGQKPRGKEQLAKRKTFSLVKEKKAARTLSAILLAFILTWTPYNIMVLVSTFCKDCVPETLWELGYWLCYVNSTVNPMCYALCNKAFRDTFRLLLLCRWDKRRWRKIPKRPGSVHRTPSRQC

[3] = target: T2, Alpha-2B adrenergic receptor (Rattus norvegicus, UniProt P19328)
T2 sequence (P19328 whole entry): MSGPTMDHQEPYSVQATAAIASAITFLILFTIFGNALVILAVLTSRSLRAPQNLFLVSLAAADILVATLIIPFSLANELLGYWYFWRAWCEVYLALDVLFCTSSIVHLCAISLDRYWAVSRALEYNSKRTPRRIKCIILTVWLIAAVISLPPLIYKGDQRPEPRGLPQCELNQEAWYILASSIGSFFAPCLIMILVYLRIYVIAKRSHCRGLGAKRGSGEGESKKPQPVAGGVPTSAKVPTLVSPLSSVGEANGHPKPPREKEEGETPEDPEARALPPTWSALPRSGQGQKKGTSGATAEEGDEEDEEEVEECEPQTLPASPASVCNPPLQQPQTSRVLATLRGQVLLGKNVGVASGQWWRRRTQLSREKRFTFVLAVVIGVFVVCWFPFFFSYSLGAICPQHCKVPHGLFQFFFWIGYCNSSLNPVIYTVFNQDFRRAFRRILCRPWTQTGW

Mu-type opioid receptor = Mu-type opioid receptor (Cavia porcellus, UniProt P97266)
Mu-type opioid receptor, sequence (P97266 whole entry): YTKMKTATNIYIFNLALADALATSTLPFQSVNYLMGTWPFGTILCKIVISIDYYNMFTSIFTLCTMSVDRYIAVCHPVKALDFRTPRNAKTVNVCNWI

[4] = target: Glutamate receptor ionotropic, NMDA 1 (Rattus norvegicus, UniProt P35439)
[5] = target: Beta-2 adrenergic receptor (Rattus norvegicus, UniProt P10608)
Beta-2 adrenergic receptor, sequence (P10608 whole entry): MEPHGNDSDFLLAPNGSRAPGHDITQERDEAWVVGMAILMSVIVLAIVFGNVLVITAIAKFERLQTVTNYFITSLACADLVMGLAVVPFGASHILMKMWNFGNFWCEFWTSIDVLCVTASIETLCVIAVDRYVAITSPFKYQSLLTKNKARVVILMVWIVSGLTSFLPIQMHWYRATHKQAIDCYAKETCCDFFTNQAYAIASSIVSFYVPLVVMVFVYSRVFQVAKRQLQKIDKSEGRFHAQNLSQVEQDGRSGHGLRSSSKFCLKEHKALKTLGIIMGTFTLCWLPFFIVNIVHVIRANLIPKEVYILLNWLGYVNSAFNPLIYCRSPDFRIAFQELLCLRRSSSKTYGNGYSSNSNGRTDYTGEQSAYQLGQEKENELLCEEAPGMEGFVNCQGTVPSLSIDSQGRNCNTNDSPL

[6] = target: T3, Alpha-2A adrenergic receptor (Oryctolagus cuniculus, UniProt Q5ZQK3)
T3 sequence (Q5ZQK3 whole entry): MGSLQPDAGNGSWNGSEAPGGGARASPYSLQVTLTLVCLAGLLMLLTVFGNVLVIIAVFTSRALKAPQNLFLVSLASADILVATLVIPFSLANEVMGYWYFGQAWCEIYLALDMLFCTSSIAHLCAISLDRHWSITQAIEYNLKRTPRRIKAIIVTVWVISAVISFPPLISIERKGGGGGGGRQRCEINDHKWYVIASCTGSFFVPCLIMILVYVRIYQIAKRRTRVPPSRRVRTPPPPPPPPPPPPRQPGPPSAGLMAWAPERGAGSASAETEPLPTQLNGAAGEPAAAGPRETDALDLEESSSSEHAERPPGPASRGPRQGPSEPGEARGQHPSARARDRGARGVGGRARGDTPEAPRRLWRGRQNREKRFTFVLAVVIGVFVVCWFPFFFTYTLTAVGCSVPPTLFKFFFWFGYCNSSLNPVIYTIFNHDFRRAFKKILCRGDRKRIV

Substance-P receptor = Substance-P receptor (Homo sapiens, UniProt P25103)
Substance-P receptor, sequence (P25103 whole entry): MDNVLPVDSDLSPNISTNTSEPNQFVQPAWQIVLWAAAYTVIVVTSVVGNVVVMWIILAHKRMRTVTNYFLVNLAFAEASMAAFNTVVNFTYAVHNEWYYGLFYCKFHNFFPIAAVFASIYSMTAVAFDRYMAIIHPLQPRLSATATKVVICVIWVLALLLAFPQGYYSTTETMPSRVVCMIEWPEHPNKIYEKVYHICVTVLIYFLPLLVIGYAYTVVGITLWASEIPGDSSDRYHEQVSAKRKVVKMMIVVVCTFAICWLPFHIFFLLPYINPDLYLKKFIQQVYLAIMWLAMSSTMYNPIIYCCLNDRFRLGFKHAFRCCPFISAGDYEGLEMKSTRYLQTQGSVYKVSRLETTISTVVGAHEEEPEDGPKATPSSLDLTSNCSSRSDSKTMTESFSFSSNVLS

[7] = target: T4, 5-hydroxytryptamine receptor 3A (Mus musculus, UniProt P23979)
T4 sequence (P23979 whole entry): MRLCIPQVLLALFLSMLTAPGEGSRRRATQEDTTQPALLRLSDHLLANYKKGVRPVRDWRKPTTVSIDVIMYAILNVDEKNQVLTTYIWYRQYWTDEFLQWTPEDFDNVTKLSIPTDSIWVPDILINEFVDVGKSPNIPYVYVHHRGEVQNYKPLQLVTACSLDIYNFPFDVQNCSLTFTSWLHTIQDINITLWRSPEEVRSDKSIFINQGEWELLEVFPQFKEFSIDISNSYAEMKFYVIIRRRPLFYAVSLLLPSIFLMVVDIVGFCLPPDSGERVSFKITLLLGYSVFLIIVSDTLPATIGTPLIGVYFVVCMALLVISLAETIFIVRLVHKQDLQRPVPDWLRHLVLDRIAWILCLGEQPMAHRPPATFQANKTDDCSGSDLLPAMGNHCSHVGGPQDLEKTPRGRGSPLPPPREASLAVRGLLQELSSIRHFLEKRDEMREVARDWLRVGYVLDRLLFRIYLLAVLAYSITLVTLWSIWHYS

[8] = target: 5-hydroxytryptamine receptor 7 (Cavia porcellus, UniProt P50407)
5-hydroxytryptamine receptor 7, sequence (P50407 whole entry): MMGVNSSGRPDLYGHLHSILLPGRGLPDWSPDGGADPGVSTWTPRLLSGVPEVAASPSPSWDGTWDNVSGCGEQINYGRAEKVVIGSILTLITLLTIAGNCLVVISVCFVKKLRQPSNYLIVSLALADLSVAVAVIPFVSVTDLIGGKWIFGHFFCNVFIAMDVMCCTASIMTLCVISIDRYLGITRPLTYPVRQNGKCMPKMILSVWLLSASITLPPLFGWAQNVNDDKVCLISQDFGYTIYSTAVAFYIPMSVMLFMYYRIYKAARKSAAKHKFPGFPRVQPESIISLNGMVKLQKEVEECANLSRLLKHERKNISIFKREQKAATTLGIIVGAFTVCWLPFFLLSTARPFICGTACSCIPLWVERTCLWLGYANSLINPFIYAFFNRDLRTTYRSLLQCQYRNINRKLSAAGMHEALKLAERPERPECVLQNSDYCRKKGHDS

[9] = target: T5, Beta-1 adrenergic receptor (Oryctolagus cuniculus, UniProt A0A4Y6F0G0)
T5 sequence (A0A4Y6F0G0 whole entry): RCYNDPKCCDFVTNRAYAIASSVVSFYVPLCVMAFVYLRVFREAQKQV

[10] = target: Muscarinic acetylcholine receptor M3 (Rattus norvegicus, UniProt P08483)
Muscarinic acetylcholine receptor M3, sequence (P08483 whole entry): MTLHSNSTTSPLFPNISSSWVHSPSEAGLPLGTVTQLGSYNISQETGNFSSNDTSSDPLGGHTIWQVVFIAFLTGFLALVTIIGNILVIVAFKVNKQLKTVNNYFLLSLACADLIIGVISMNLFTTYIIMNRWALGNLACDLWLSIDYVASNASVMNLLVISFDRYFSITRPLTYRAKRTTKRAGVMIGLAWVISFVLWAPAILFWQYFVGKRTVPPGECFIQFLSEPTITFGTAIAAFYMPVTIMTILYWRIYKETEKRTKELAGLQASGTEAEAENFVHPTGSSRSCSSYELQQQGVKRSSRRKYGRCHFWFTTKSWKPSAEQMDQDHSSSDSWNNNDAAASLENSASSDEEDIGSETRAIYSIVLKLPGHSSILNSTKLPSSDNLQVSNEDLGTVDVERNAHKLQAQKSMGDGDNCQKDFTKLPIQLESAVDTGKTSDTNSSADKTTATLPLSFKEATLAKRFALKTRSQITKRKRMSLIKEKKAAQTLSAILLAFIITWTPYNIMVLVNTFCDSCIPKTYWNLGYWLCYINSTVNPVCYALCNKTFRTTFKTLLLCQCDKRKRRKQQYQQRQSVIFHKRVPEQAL

[11] = target: T6, 5-hydroxytryptamine receptor 1A (Rattus norvegicus, UniProt P19327)
T6 sequence (P19327 whole entry): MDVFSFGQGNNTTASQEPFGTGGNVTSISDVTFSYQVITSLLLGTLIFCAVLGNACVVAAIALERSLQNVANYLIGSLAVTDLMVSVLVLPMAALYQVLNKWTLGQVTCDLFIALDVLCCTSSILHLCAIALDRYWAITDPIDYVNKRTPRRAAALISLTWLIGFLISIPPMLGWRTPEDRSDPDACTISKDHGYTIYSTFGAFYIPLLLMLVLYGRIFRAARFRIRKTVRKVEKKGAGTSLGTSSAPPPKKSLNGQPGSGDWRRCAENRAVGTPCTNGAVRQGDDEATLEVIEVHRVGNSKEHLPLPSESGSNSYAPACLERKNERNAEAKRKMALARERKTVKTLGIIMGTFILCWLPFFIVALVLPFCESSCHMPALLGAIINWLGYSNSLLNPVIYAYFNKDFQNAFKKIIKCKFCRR

Glutamate receptor 3 = Glutamate receptor 3 (Rattus norvegicus, UniProt P19492)
Glutamate receptor 3, sequence (P19492 whole entry): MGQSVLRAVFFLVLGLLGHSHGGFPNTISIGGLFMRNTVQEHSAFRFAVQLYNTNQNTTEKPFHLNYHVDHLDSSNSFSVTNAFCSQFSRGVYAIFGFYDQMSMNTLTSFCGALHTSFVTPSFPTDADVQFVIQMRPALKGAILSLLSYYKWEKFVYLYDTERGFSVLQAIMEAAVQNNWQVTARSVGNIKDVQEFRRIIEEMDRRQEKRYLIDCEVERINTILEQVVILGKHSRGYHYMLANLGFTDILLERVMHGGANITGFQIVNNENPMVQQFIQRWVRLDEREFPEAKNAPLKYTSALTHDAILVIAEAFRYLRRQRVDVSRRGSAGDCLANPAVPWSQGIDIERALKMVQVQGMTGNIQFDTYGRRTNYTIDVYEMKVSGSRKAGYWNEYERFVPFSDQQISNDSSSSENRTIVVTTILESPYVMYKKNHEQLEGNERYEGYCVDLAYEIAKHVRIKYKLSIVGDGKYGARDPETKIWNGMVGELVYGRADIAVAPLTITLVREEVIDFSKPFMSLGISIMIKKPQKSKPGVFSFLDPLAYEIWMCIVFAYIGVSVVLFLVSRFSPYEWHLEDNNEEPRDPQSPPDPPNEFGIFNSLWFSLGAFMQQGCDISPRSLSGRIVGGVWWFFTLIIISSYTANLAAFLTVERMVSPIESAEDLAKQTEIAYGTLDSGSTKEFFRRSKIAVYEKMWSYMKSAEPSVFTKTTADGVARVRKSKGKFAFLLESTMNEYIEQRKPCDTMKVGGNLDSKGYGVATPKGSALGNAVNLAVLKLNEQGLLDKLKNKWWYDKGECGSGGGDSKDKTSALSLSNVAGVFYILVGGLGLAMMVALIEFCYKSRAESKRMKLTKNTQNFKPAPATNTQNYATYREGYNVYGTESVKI

[12] = target: Gamma-aminobutyric acid receptor subunit alpha-1 (Rattus norvegicus, UniProt P62813)
Gamma-aminobutyric acid receptor subunit alpha-1, sequence (P62813 whole entry): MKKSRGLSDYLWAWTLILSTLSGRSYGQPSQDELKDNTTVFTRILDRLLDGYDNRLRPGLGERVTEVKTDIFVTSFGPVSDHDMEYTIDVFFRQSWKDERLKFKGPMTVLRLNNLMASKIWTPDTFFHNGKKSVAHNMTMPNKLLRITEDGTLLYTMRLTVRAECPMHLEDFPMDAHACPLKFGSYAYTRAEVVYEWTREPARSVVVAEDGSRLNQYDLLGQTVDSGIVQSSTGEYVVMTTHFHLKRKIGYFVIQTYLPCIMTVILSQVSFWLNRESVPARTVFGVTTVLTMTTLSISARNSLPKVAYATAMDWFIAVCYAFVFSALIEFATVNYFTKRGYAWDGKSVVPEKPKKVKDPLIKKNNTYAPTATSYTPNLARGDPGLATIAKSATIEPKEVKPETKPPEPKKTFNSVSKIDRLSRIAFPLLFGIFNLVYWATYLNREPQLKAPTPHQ

[13] = target: T7, Muscarinic acetylcholine receptor M2 (Rattus norvegicus, UniProt P10980)
T7 sequence (P10980 whole entry): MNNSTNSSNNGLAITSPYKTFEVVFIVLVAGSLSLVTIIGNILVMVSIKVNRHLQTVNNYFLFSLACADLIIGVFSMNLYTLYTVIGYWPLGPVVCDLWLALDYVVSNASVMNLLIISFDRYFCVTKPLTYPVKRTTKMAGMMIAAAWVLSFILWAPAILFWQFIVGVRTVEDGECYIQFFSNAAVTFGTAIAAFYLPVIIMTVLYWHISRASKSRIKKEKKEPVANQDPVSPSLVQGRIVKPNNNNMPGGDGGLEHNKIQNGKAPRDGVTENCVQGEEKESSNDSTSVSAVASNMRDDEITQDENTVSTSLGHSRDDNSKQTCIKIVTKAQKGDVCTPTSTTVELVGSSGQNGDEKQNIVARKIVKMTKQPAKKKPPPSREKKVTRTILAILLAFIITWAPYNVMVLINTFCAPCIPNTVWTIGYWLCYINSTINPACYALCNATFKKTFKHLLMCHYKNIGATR

[14] = target: T8, Alpha-1B adrenergic receptor (Rattus norvegicus, UniProt P15823)
T8 sequence (P15823 whole entry): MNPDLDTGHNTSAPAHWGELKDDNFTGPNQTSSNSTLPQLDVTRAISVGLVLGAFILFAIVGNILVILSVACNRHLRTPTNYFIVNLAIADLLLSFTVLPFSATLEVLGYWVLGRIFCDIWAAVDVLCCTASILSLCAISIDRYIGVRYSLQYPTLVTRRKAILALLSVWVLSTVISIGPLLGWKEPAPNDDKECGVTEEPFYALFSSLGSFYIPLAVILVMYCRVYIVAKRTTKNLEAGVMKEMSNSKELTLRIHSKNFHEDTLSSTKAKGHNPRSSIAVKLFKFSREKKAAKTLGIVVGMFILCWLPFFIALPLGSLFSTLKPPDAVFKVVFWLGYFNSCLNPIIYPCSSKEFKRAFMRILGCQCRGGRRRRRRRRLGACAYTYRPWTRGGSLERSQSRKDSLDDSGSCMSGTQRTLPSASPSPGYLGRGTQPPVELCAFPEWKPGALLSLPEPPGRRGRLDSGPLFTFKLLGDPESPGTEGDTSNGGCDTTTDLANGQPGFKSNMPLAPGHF

Kappa-type opioid receptor, sequence (P41144 whole entry): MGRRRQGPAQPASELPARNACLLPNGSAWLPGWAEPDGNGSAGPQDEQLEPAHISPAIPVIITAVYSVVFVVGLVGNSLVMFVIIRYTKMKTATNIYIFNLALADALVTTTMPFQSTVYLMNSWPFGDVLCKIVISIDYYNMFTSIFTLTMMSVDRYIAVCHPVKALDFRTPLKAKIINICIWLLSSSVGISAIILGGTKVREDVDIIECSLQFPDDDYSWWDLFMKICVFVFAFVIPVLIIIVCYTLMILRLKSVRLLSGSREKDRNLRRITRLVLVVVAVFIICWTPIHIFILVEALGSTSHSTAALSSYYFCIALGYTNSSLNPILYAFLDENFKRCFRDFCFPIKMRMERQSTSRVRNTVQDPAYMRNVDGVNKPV

Ki [1]: > 10 µM
Ki [2]: > 10 µM
Ki [3]: > 10 µM
Ki (Mu-type opioid receptor): > 10 µM
Ki [4]: > 10 µM
Ki [5]: > 10 µM
Ki [6]: 0.316 µM
Ki (Substance-P receptor): > 10 µM
Ki [7]: > 10 µM
Ki [8]: > 10 µM
Ki [9]: > 10 µM
Ki [10]: > 10 µM
Ki [11]: > 10 µM
Ki (Glutamate receptor 3): > 10 µM
Ki [12]: > 10 µM
Ki [13]: > 10 µM
Ki [14]: > 10 µM
Structure (SMILES): COc1cc(OC)c(C(=O)CCCCN2CCC3(CC2)NC(=O)NC3=O)cc1NS(=O)(=O)c1ccc(C(F)(F)F)cc1 [N-[5-[5-(2,4-Dioxo-1,3,8-triazaspiro[4.5]decan-8-yl)-1-oxopentyl]-2,4-dimethoxyphenyl]-4-(trifluoromethyl)benzenesulfonamide]
